Assays:
[1] = system: hPSC-derived BMECs; assay: TEER of hPSC-derived BMECs on Transwells; type: cell-based, human; settings: cells differentiated in the presence of RA; replated day 8, measured at day 10
Procedure: BMECs were differentiated as shown in FIG. 1A in the presence or absence of RA, as indicated. (A) At day 8 expression of tight junction and transporter genes was assessed by qPCR. (B) Flow cytometry for CD31 expression was performed at days 6 and 8. (C) Pgp expression was quantified by flow cytometry at day 10. At day 6, medium was switched to hESFM containing or lacking RA, as indicated. (D) At day 8, cells were replated onto Matrigel®-coated Transwell® membranes at 10^6 cells/cm^2 in the presence or absence of 10 μM Y27632 (ROCK inhibitor). Y27632 was added to increase attachment (Pipparelli et al., PloS one 2013, 8:e62095) of cells differentiated in the absence of RA and permit confluent monolayer formation. TEER was measured at day 10, two days after replating (D). (E, G) Occludin and (F, G) ZO-1 expression and localization were assessed by flow cytometry and immunostaining at day 10. Red arrows indicate non-uniform occludin or ZO-1. Claudin-5 expression at day 10 was assessed by flow cytometry (H, I). (I) At day 10, expression level of claudin-5 in BMECs differentiated in the presence or absence of RA were assessed by flow cytometry. (J) Localization and expression of claudin-5 of cells differentiated in the absence of RA was determined via immunostaining (white arrows indicate non-positive claudin-5 and red arrows indicate discontinuous claudin-5). […]

[2] = system: tight junction related genes TJP1, CLDN5 and OCLN and efflux transporters ABCG2, ABCC1, and ABCB1; assay: Quantitative RT-PCR of tight junction and transporter genes with or without RA; type: cell-based, human; settings: 10 μM RA day 6 to day 8; qPCR at day 8
Procedure: Total RNA was extracted with the RNeasy mini kit (QIAGEN) and treated with DNase (QIAGEN). 1 μg total RNA was reverse transcribed into cDNA via Oligo (dT) with Superscript III Reverse Transcriptase (Invitrogen). Real-time quantitative PCR was done in triplicate with iQSYBR Green™ SuperMix (Bio-Rad). GAPDH was used as an endogenous housekeeping control.

[3] = system: hPSC-derived BMECs; assay: Flow cytometry of BMEC marker proteins (claudin-5, Pgp, occludin, ZO-1) with or without RA; type: cell-based, human
Text: Data were collected on a FACSCaliber flow cytometer (Beckton Dickinson) and analyzed using FlowJo.

[4] = system: IMR90-4 induced pluripotent stem cells; assay: Brachyury expression after CHIR99021 treatment (immunostaining, flow cytometry); type: cell-based, human; settings: 6 μM, 24 hr treatment in DeSR1; IMR90-4 iPSCs
Procedure: Given the roles of canonical Wnt signaling in both mesoderm specification and BBB development, we first treated hPSCs with CHIR99021, a GSK-3β inhibitor and Wnt agonist, to direct hPSCs to mesoderm-derived endothelial progenitors. Prior to treatment, IMR90-4 induced pluripotent stem cells (iPSCs) were seeded on a Matrigel-coated six-well plate at a density of 35×10^3 cells/cm^2 and expanded in an undifferentiated state for three days in mTeSR1™ (FIG. 1A). […] After 24 hours, the medium was removed and cells were transitioned to DeSR2 (DeSR1 plus B27 supplement) for another five days with daily medium changes. At day 0, pluripotency was verified by OCT4, NANOG and TRA-1-60 immunostaining (FIGS. 1B-D). After 24 hr of CHIR99021 treatment, almost 100% of the cells expressed brachyury, assessed by immunostaining (FIG. 1E) and flow cytometry (FIG. 1F), indicating progression to primitive streak. […] At day 4, more than 90% of the cells expressed the intermediate mesoderm marker PAX2 (FIGS. 1G, 1H) and PAX2 expression peaked at day 6 (FIG. 5). […]
Cells were dissociated with Accutase™ and fixed in 1% PFA for 15 min at room temperature, then washed with 0.5% BSA (Bio-Rad) plus 0.1% Triton-X100 three times. […] Data were collected on a FACSCaliber flow cytometer (Beckton Dickinson) and analyzed using FlowJo. […]

[5] = system: hPSC-derived BMECs; assay: ICAM-1 induction by TNF-α; settings: 10 ng/mL TNF-α for 16 hours; day 10 hPSC-derived BMECs
Procedure: (D-F) ICAM-1 induction in hPSC-derived BMECs. hPSC-derived BMECs at day 10 were treated with 10 ng/mL of TNF-α for 16 hours. Cells were stained for ICAM-1 (D) before and (E) after TNF-α treatment. (F) Cells were dissociated or dissociated with Accutase™ and ICAM-1 expression quantified by flow cytometry before and after TNF-α treatment. […] Data were collected at least from three independent samples and are represented as mean±SEM. **p<0.01, ***p<0.001.

## CC1=C(/C=C/C(C)=C/C=C/C(C)=C/C(=O)O)C(C)(C)CCC1 [RA, retinoic acid]
[1]
  TEER: ~4000 Ω·cm^2
[2]
  expression of TJP1, CLDN5, OCLN, ABCG2, ABCC1 and ABCB1 in cells exposed to RA vs. lacking RA: 3-20 fold
[3]; RA-treated cells, day 10, flow cytometry (around 60% in the absence of RA)
  cells expressing claudin-5: 100%
[3]; differentiated in the presence of RA, day 10, flow cytometry
  cells expressing Pgp: ~100%

## Cc1c[nH]c(-c2cnc(NCCNc3ccc(C#N)cn3)nc2-c2ccc(Cl)cc2Cl)n1 [CHIR99021]
[4]
  cells expressing brachyury: ~100%

## TNF-α
[5]
  ICAM-1 expression: upregulation

Reference: US10214724B2, “Methods for differentiation of human pluripotent stem cells to brain microvascular endothelial cells” (Wisconsin Alumni Research Foundation, priority 2016, dated 2019)
